The values below come from patent US11679165B2, “Alkenyl substituted 2,5-piperazinediones, compositions, and uses thereof” (Massachusetts Institute of Technology, priority 2015, dated 2023).

Series [1] is described as follows: LNP diameter and polydispersity by dynamic light scattering. Type of series: physicochemical. The settings on record: for LNP Diameter: largest intensity mean peak average. The procedure:
(§1) General Lipid Nanoparticle (LNP) Synthesis. […] The ethanol and aqueous phases were mixed at a 3:1 ratio in a microfluidic chip device (ref […] paper) using syringe pumps as previously described at a final mRNA concentration of 0.1 mg/mL. See, e.g., Chen et al., J. Am. Chem. Soc. (2012) 134:6948. Resultant LNPs were dialyzed against PBS in a 20,000 MWCO cassette at 4° C. for 2 hours. LNP Characterization. To calculate the mRNA encapsulation efficiency, a modified Quant-iT RiboGreen RNA assay (Invitrogen) was used as previously described. See, […] al., J. Controlled Release (2005) 107:276-287. The diameter and polydispersity (PDI) of the LNPs were measured using dynamic light scattering (ZetaPALS, Brookhaven Instruments). LNP diameters are reported as the largest intensity mean peak average, which constituted >95% of the nanoparticles present in the sample.

Series [2] can be described thus: mRNA encapsulation efficiency, modified Quant-iT RiboGreen RNA assay. In kind it is physicochemical. To be noted: EPO mRNA LNP formulation of the ionizable lipid. The method, then:
as §1

Series [3] concerns human Erythropoietin (EPO). Briefly: Serum EPO after intravenous injection of EPO mRNA loaded LNPs (ELISA). Type of series: in vivo, mice. To be noted: for Average EPO: serum EPO, mean±SD (n=3), 6 hr after 0.75 mg/kg intravenous injection into mice, lipid formulated as EPO mRNA LNP; for serum EPO concentration: 0.75 mg/kg intravenous, C57BL/6 mice, six hours (FIG. 2). The procedure:
Compounds OF-00 through OF-03 were then formulated with human erythropoietin (EPO) mRNA, cholesterol, 1,2-dioleoyl-sn-glycero-3-phosphoethanolamine, and C14-PEG-2000 in accordance with previously optimized formulation parameters for mRNA delivery. See, e.g., A. Amirouche et al., Human molecular genetics 2013, 22, 3093-3111. […] Additionally, cKK-E12 is capable of silencing Factor VII expression in mice at siRNA doses as low as 0.002 mg/kg, and as such it represents a benchmark ionizable lipid in the field of nucleic acid delivery. The nanoparticle diameters, polydispersity indices, and encapsulation efficiencies for each of these five formulations is provided in Table 1. Serum EPO concentrations are reported as mean±SD (n=3) 6 hr after a 0.75 mg/kg dose intravenous injection into mice. Encapsulation efficiencies, LNP diameter, and PDI were collected as described above for each representative LNP formulation.
Each resultant mRNA loaded LNP was then injected intravenously at a 0.75 mg/kg dose in C57BL/6 mice alongside phosphate buffered saline (PBS) as a negative control. At six hours, the serum EPO levels were quantified (FIG. 2). The PBS control imparted no significant EPO production in vivo, whereas positive control cKK-E12 LNPs promoted a serum EPO concentration of 7050 ng/mL. […] Additionally, OF-02 outperformed two other benchmark ionizable lipids from the siRNA delivery field, namely 503-013 (See, e.g, J. McClellan, M. C. King, Cell 2010, 141, 210-217; Whitehead et al., Nature Communications (2014) 5:4277) and C12-200 (K. T. Love et al., Proceedings of the National Academy of Sciences of the United States of America 2010, 107, 1864-1869). These two compounds represent the leads in their respective ionizable lipid classes of acrylate esters and amino alcohols, and promoted respective EPO concentrations of 2836 ng/mL and 7065 ng/mL at an identical dose.
General Lipid Nanoparticle (LNP) Synthesis. The organic phase was prepared by solubilizing with ethanol a mixture of ionizable lipid, 1,2-dioleoyl-sn-glycero-3-phosphoethanolamine (DOPE, Avanti), cholesterol (Sigma), and 1,2-dimyristoyl-sn-glycero-3-phosphoethanolamine-N-[methoxy(polyethyleneglycol)-2000] (ammonium salt) (C14-PEG 2000, Avanti) at a molar ratio of 35:16:46.5:2.5 and ionizable lipid:mRNA weight ratio of 10:1 in accordance with previously optimized formulation parameters for mRNA delivery. The aqueous phase was prepared in 10 mM citrate buffer (pH 3) with either EPO mRNA (human Erythropoietin mRNA, courtesy of Shire Pharmaceuticals, Cambridge, Mass.) or Luc mRNA (Firefly luciferase mRNA, Shire). The ethanol and aqueous phases were mixed at a 3:1 ratio in a microfluidic chip device (ref Delai's paper) using syringe pumps as previously described at a final mRNA concentration of 0.1 mg/mL. See, e.g., Chen et al., J. Am. Chem. Soc. (2012) 134:6948. Resultant LNPs were dialyzed against PBS in a 20,000 MWCO cassette at 4° C. for 2 hours.
(§2) Animal Experiments. […] Luminescence was quantified using LivingImage software (Perkin Elmer).

The subject of another series is Factor VII. To be noted: mice, siRNA delivery; cited from earlier work.
For the next series, the system named is mice. Briefly: Mortality and weight change of mice treated with mRNA LNPs. The settings on record: all doses studied.
For a further series, the system named is luciferase. Further details: species or system mice. The settings on record: mouse, in vivo. The procedure:
We were interested to determine if the efficacy differences observed between ckk-E12 and OF-02 LNPs were due to variations in biodistribution. mRNA coding for luciferase was independently formulated with both ckk-E12 and OF-02 in the same fashion as for EPO delivery, and mouse organs were harvested 24 hours post injection. […] Since more than 4000 human diseases are caused by liver genetic disorders such as hemophilias A and B, OF-02 LNPs represent a promising delivery vehicle for therapeutic mRNA delivery to the liver. See, e.g., J. McClellan et al., Cell 2010, 142, 353-355.
as §2

Description for mice: FIG. 7 depicts the percent weight gain for cKK-E12 and OF-02 mRNA LNPs reported as mean SD (n=3) 24 hours after respective intravenous dose into mice.
Animal Experiments. […] LNPs were intraveneously injected in female C57BL/6 mice (Charles River Labs, 18-22 grams) via the tail vein. After six or 24 hours, blood was collected via the tail vein and serum was isolated by centrifugation in serum separation tubes. Serum EPO levels were quantified with an ELISA assay (Human Erythropoietin Quantikine IVD ELISA Kit, R&D Systems, Minneapolis, Md.). 24 hours after injection of Luc-mRNA LNPs, mice were injected intraperitoneally with 130 μL of D-luciferin (30 mg/mL in PBS). After fifteen minutes, mice were sacrificed and the organs were isolated (pancreas, spleen, liver, kidneys, lungs, heart, uterus and ovaries) and imaged with an IVIS imaging system (Perkin Elmer, Waltham, Mass.). Luminescence was quantified using LivingImage software (Perkin Elmer).

Turning to `CC/C=C\C/C=C\C/C=C\CC(O)CN(CCCCC1NC(=O)C(CCCCN(CC(O)C/C=C\C/C=C\C/C=C\CC)CC(O)C/C=C\C/C=C\C/C=C\CC)NC1=O)CC(O)C/C=C\C/C=C\C/C=C\CC` (stereo not drawn) [OF-03], in series [1], the PDI came to 0.239 and the “LNP Diameter” value amounted to 75 nm. The “Encapsulation Efficiency” value in series [2] came out at 76%. Moreover, the “Average EPO” value in series [3] was determined as 140 ± 3 ng/mL.
Take `CCCCCCCCCCCCCOC(=O)CCN(CCC(=O)OCCCCCCCCCCCCC)CCN(C)CCCN(C)CCN(CCC(=O)OCCCCCCCCCCCCC)CCC(=O)OCCCCCCCCCCCCC` [Compound 503-013]: in series [3], the “serum EPO concentration” value worked out at 2836 ng/mL.
With `CCCCCCCCCCC(O)CN(CCCCC1NC(=O)C(CCCCN(CC(O)CCCCCCCCCC)CC(O)CCCCCCCCCC)NC1=O)CC(O)CCCCCCCCCC` (stereo not drawn) [cKK-E12], the “siRNA dose at which Factor VII expression is silenced” value in the series with Factor VII was 2 µg/kg. Further, the animal mortality result in the series with mice is listed as “no animal mortality was observed”. The “organ of luciferase mRNA translation (total luminescence per organ)” value with luciferase was “predominantly translated in the liver”. Also, in series [1], the PDI is reported as 0.217 and the “LNP Diameter” value turned out to be 83 nm. In series [2], the “Encapsulation Efficiency” value came to 54%. For the same compound, in series [3], the “serum EPO concentration” value came out at 7050 ng/mL and the “Average EPO” value was 7100 ± 700 ng/mL. The “dose response behaviour of EPO production” value in series [3] (0.75 to 2.25 mg/kg EPO mRNA (FIG. 3B)) is “linear fashion with respect to dose”.
Regarding `CCCCCCCCCCC(O)CN(CCN1CCN(CCN(CC(O)CCCCCCCCCC)CC(O)CCCCCCCCCC)CC1)CCN(CC(O)CCCCCCCCCC)CC(O)CCCCCCCCCC` (stereo not drawn) [Compound C12-200], the “serum EPO concentration” value in series [3] was determined as 7065 ng/mL.
